Patent publication US20210372995A1, “BIOMIMETIC PLATFORMS TO MODEL VASCULAR PATHOPHYSIOLOGY, DIAGNOSTICS, AND THERAPY” (The Johns Hopkins University, priority 2017, published 2021)

How the values were obtained:
hTERT HAEC = test: NO production by hTERT HAEC in 3D scaffolds (conditioned media, Seivers NO analyzer); assay type: cell-based, human; conditions: 1 μM, 30 minutes; HAEC growing 2 months in 3D scaffolds
Method: Endothelial cells have many functions including the production of nitric oxide (NO). NO is a vasoactive agent important for modulating the vascular smooth muscle tone (Davidge, S. T., et al., Circ Res 1995, 77 (2), 274-83). The confluent cells growing for 2 months in the tubes were tested for NO production to determine endothelial function and viability. To qualitatively assess the NO production, 50 μL of the conditioned-media was analyzed using Seivers NO analyzer. FIGS. 13A-13C show NO production by hTERT HAEC with and without calcium ionophore stimulation. A 7- to 35-fold increase of NO was observed when HAEC growing in 3D scaffolds was stimulated with 1 μM A23187 calcium ionophore for 30 minutes. Others have reported twofold NO increase after 60-minute incubation of HAEC in 1 μM ionomycin grown on well plates (Cosentino, F., et al., Circulation 1997, 96 (1), 25-8). Using bovine coronary microvascular endothelial cells, a 3-fold increase was observed when stimulated with 1 μM A23187 calcium ionophore for 5 hours (Davidge, S. T., et al., Circ Res 1995, 77 (2), 274-83). […] There is difficulty in direct comparison of results with reported observations due to differences in methodology, analysis, and cell types. […] The higher increase in NO production warrants further investigation if 3D geometry affects HAEC NO production. […]

[1] = tested on: bovine coronary microvascular endothelial cells; conditions: 1 μM, 5 hours; cited from earlier work
fibroblasts = conditions: 100 µM; cited from earlier work
[2] = cited from earlier work
HAEC = conditions: 1 μM, 60-minute incubation; HAEC on well plates; cited from earlier work
HPASMC = test: Contractility of aligned HPASMC on microwrinkled PDMS; assay type: cell-based, human; conditions: 1 μM, 10 minutes
Method: HPASMC cultivated on microwrinkled PDMS were treated with angiotensin ii (1 μM) and serial phase images were taken (1, 3, 10 minutes, from left to right) to assess cell contraction. […] Scale bar=50 μm.
A 6 μm PDMS film was stretched by 20% with a uniaxial stretching system, followed by exposure to oxygen plasma (Plasma Etcher Inc.) at 80 W for 60 minutes to generate wrinkles (FIG. 1A-FIG. 1C and FIG. 16). […] To test the contractility of aligned HPASMC, HPASMC were exposed to angiotensin II (1 μM; Sigma Aldrich, St. Louis, Mo.) for 10 minutes. […] A more quantitative measurement of SMC contraction is employed as described in the Experimental Design section.

[3] = tested on: human coronary artery endothelial cells; conditions: 20 ng/mL; cited from earlier work

**Q.** Which “increase of NO” value (hTERT HAEC) does the source give for `CNc1ccc2oc(C[C@H]3O[C@@]4(CC[C@H]3C)O[C@H]([C@H](C)C(=O)c3ccc[nH]3)[C@H](C)C[C@H]4C)nc2c1C(=O)O` [A23187] here?
**A.** 7- to 35 fold

**Q.** And the NO increase [1]?
**A.** 3 fold

**Q.** For `COc1ccccc1Oc1c(NS(=O)(=O)c2ccc(C(C)(C)C)cc2)nc(-c2ncccn2)nc1OCCO` [Bosentan], which proliferation in fibroblasts (fibroblasts) is on record?
**A.** altered

**Q.** What about the “smooth muscle alpha actin expression in fibroblasts” value (fibroblasts) of the same compound?
**A.** altered

**Q.** For `CCCCC[C@H](O)/C=C/[C@@H]1[C@H]2C/C(=C/CCCC(=O)O)O[C@H]2C[C@H]1O` [Prostacyclin], which half-life [2] is on record?
**A.** 3 to 5 min

**Q.** With `C[C@H](CCC(=O)O)C[C@H](C)C[C@H](C)C(=O)/C=C(\O)[C@H](C)C[C@H](C)C/C=C/[C@@H](C)[C@@H](O)[C@@H](C)[C@@H](O)C[C@@H]1CC[C@@](C)([C@H]2CC[C@@](C)([C@@H](C)O)O2)O1` [ionomycin] as the compound, how does the NO increase (HAEC) read?
**A.** twofold

**Q.** Which “cell contraction of aligned HPASMC” value (HPASMC) does the source give for “angiotensin II (DRVYIHPF; Angiotensin-2; UniProt P01019 25-32, looked up) [contractile agent (Sigma Aldrich)]” here?
**A.** time-dependent contraction

**Q.** With hepatocyte growth factor as the compound, how does the NO increase [3] read?
**A.** twofold
